The results in this text go back to paper PMC8404199, “Structure–Activity Relationships of Triple-Action Platinum(IV) Prodrugs with Albumin-Binding Properties and Immunomodulating Ligands” (Journal of Medicinal Chemistry, 2021).

The term IC50 denotes the concentration that gives 50% inhibition.

Like-named read-outs stand apart in the source and are kept apart here.

The subject of series [1] is human hepatic cell line (WRL68). Description: MTT cytotoxicity assay in non-malignant WRL68 cells. It counts as cell-based. Particulars: 72 h. As for the experimental part: (§1) The cells were seeded at 3500–6000 cells/well in 96-well plates depending on the proliferation rate of the respective cell line and allowed to recover for 24 h. Subsequently, the cells were treated at indicated concentrations for 48 or 72 h. Cells were additionally incubated with 5-fold equimolar concentrations of ascorbic acid to increase the reduction rate of the compounds. Cell viability was measured by the MTT-based vitality assay (EZ4U; Biomedica, Vienna, Austria), following the manufacturer’s recommendations.
A general note: Formazan colour is commonly taken as a measure of viable cells.

A further series concerns HCT116 cells. Description: Cellular platinum levels in HCT116 cells by ICP-MS. The class given is cell-based, human. Particulars: HCT116, 20 μM, 3 h incubation. The protocol:
HCT116 cells were seeded at 6 × 10^5 cells/well in a six-well plate and allowed to settle for 24 h. Cells were exposed to drugs at 20 μM for 3 h under normal cell culture conditions. Cells were washed twice with PBS and lysed at RT in 500 μL HNO3 (≥69%, Rotipuran Supra, Carl Roth, Karlsruhe, Germany) for 1 h. 400 μL of the lysate was transferred to 7.6 mL of ultrapure water (18.2 MΩ cm, Milli-Q Advantage, Darmstadt, Germany).
The instrument was tuned on a daily basis.

The subject of a further series is SKOV3 cancer cells. Description: Long-term cytotoxicity assay (crystal violet) in SKOV3 cells. The class given is cell-based, human. Conditions: 168 h, crystal violet stain, mean ± SD. As for the experimental part:
SKOV3 cells were seeded in duplicates at 5000 cells/well in 24-well plates and allowed to recover for 24 h. Subsequently, the cells were treated at the indicated concentrations for 168 h. Cells were fixed with ice-cold methanol (20 min at 4 °C), washed with PBS, and stained with crystal violet. Subsequently, colony formation was inspected, and the fluorescence signal was detected using Typhoon Trio imager (GE Healthcare, Little Chalfont, UK) at 610/30 nm BP and analyzed by ImageJ software.

Series [2] has as its system human embryonic kidney cells (HEK293). In words: MTT cytotoxicity assay in non-malignant HEK293 cells. The class given is cell-based. Conditions: 72 h. The protocol: as §1
Series [3] has as its system murine CT26 colon cancer cells. Description: MTT cytotoxicity assay in CT26 cells. The class given is cell-based. As for the experimental part:
(§2) Cells were additionally incubated with 5-fold equimolar concentrations of ascorbic acid to increase the reduction rate of the compounds. Cell viability was measured by the MTT-based vitality assay (EZ4U; Biomedica, Vienna, Austria), following the manufacturer’s recommendations.

Series [4] relates to human HCT116 colon cancer cells. In words: MTT cytotoxicity assay in HCT116 cells. It counts as cell-based. The protocol:
as §2

Another series concerns human SKOV3 cancer cells. In words: MTT cytotoxicity assay in SKOV3 cells. It counts as cell-based. Particulars: 72 h incubation, with 5 eq. AA; read-out: SKOV3 IC50 values + 5 eq. AA, mean. As for the experimental part:
as §1

For series [5], the system named is VM7 melanoma cancer cells. Description: MTT cytotoxicity assay in VM7 cells. It counts as cell-based, human. Particulars: 72 h. As for the experimental part: as §1
The test system of the next series is IDO. Description: LC-HRMS of 1-MDT and Trp metabolites in tumor tissue. The class given is in vivo, mice. Conditions: 24 h after treatment. The protocol:
To 50 mg of tumor tissue, 50 μL of fully ^13C internal standard (labeled yeast extract prepared in 2 mL of H2O; ISOtopic solutions e.U., Vienna, Austria) and 950 μL of 80% MeOH (LC–MS grade, Sigma-Aldrich, Vienna, Austria) were added and homogenized in a Dounce-type glass tissue grinder. The homogenate was collected, the tissue homogenizer was washed twice with 400 μL 80% MeOH (LC–MS grade, Sigma-Aldrich, Vienna, Austria), and the washing solution was added to the homogenate. The samples were vortexed, centrifuged (14,000g, 4 °C, 20 min), and kept on dry ice until further processing. 500 μL of tumor sample aliquots was dried for direct LC–HRMS analysis.
All samples were resuspended in 100 μL of water (supernatant sample: same volume; tumor samples 5-fold concentration) and measured using a 12 min method based on reversed-phase chromatography (column: HSS T3, 1.8 μm, 2.1 × 150 mm, Waters) and high-resolution mass spectrometry (Orbitrap HF, Thermo). For quantification, multi-point calibration with external standard mixes (Kyn, Trp, and kynurenic acid) using co-eluting ^13C internal standards was performed and analyzed by Skyline 20.2.0.286. For 1-MDT, relative quantification based on ^13C Trp normalization was performed.

For series [6], the system named is CT26 colon cancer allografts. In words: Anticancer activity against CT26 allografts in Balb/c mice. It counts as in vivo. Conditions: iv, equimolar to 9 mg/kg oxaliplatin, twice a week for 2 weeks. As for the experimental part:
Every day, the animals were monitored for body weight and the enhanced stress level, and the tumor size was measured using a caliper according to the formula length × width^2/2.

Series [7] in a line: Organ distribution of platinum in SKOV3-bearing SCID mice. Conditions: 24 h after single iv dose equimolar to 9 mg/kg oxaliplatin; for Platinum ratio tumor:kidney / Platinum ratio tumor:liver: ratio of mean platinum levels.
Experimental: For tissue digestion, approx. 25–50 mg of tissue was weighed into perfluoralkoxy tubes, and 2 mL of HNO3 and 100 μL H2O2 (30%, Suprapur, Merck, Darmstadt, Germany) were added. The solutions were placed on a hot plate and heated up for 7 h using a temperature program with a maximum of 200 °C. The liquids were transferred to 15 mL tubes with the remaining solution being removed by washing twice with 4 mL of ultrapure water.
Platinum concentrations were measured using an Agilent 7800 ICP-QMS instrument (Agilent Technologies, Tokyo, Japan) equipped with an Agilent SPS 4 autosampler (Agilent Technologies, Tokyo, Japan) and a MicroMist nebulizer at a sample uptake rate of approx. 0.2 mL/min. […] All of the measured samples were blank corrected (for the cell culture data, wells containing no cells were used). Elemental standard solutions were purchased from Labkings (Hilversum, The Netherlands). The instrument was tuned on a daily basis.
SKOV3 cells (1.5 × 10^6 cells in 50 μL serum-free medium) were injected subcutaneously into the right flank of male SCID mice. […] Then, the animals were sacrificed by cervical dislocation, and tumors and organs were collected for the measurement with ICP–MS. For plasma isolation, blood was collected in ethylenediaminetetraacetic acid (EDTA)-coated tubes and centrifuged for 10 min at 900g at 4 °C. Plasma was transferred to a new tube and centrifuged once more to remove residual red blood cells.
The test system of series [8] is tumor-infiltrating T-cell populations. Description: Flow cytometry of T-cell populations in CT26 tumors and tumor-draining lymph nodes. Particulars: 24 h after single iv treatment equimolar to 9 mg/kg oxaliplatin. The class given is in vivo, Balb/c mice. As for the experimental part:
CT26 cells (5 × 10^5 cells in 50 μL of serum-free RPMI medium) were injected into the right flank of female Balb/c mice (n = 4 per group). On day 7, when the tumors reached a mean tumor volume of ∼170 mm^3, mice were treated once iv with MalEs/IdoCa at a concentration equimolar to 9 mg/kg (dissolved in 20% PG in PBS) or solvent only. After 24 h, the animals were sacrificed, and tumor tissues and the tumor-draining lymph nodes were isolated. Tissues were collected in a tube with 750 μL of ice-cold PBS containing 5% FBS and cut into small pieces. Samples were digested using PBS containing 50 mg/mL collagenase (C2139, Merck, Darmstadt, Germany) and 50 mg/mL DNase I (DN25, Darmstadt, Germany) and filtered several times through a 70 μm cell strainer (734-2761, VWR, Pennsylvania, USA). The samples were centrifuged, and cell pellets were treated with ammonium–chloride–potassium (ACK)-buffer (150 mM NH4Cl, 10 mM KHCO3, 127 μM EDTA, pH 7.2–7.4) to lyse red blood cells and centrifuged in a Würzburg buffer (PBS containing 5% FBS, 5 mM EDTA, 20 μg/mL DNase I).
Cells were washed with PBS and stained using the Aqua Zombie Fixable Viability Kit (423101, BioLegend, California, USA), according to the manufacturer’s instructions. […] The cleaned up data were analyzed using the gating strategy, as shown in Figure S15 for murine tissue and Figure S16 for human co-culture experiment.
Background: In flow cytometry, cells or beads pass a laser one at a time.

Series [9] in a line: UHPLC reduction experiments with L-ascorbic acid. Particulars: 1 mM complex, 10 mM AA, pH 7.4, 20 °C. The class given is physicochemical. As for the experimental part:
The platinum(IV)–succinimide complexes were dissolved in 2% DMF in phosphate buffer (500 mM, pH 7.4) to a final concentration of 2 mM. The solutions were then mixed 1:1 with a 20 mM stock of L-ascorbic acid in phosphate buffer (500 mM, pH 7.4) to obtain final concentrations of 1 mM complex, 10 mM L-ascorbic acid, and 1% DMF. The samples were incubated at 20 °C and measured on a Dionex UltiMate 3000 RS UPLC system with a Waters Acquity UPLC BEH C18 column (3 × 50 mm, pore size 1.7 μm) and absorption detection at 220 nm. Data points were taken at t = 0 and every 30 min for 6 h.

Series [10] in a line: UHPLC reduction kinetics with dithiothreitol. The class given is physicochemical. Conditions: 1 mM complex, 10 mM DTT, 1% DMF, 500 mM phosphate buffer pH 7.4, 20 °C. As for the experimental part: Figure S 3: Reduction kinetics of reference compounds with AA at 20°C , measured by UHPLC and UV absorption at 220 nm. A: Comparison of OAc/IPAEs with amino -group containing SucCa/IdoEs; B:
Reductive stability of reference compounds with no 1MDT -like ligand. AUC-values were normalized to t = 0. Experimental conditions: 1 mM complex, 10 mM AA in 1% DMF and 500 mM phosphate buffer […]
conditions: 1 mM complex, 10 mM DTT in 1% DMF and 500 mM phosphate buffer (pH 7.4). […]

In the case of `O=C1[O][Pt]2([NH][C@@H]3CCCC[C@H]3[NH]2)[O]C1=O` [oxaliplatin, reference compound], the concentration for half-maximal inhibition (IC50) in [1] worked out at 8.35 µM; in the series with SKOV3 cancer cells it was 6.2 ± 1.1 µM; in [2] it was 2100 nM; in series [3] (48 h incubation, with 5 equiv AA, read-out: CT26 IC50 values +AA, mean ± SD) it was 1530 ± 250 nM; in series [3] (48 h incubation, without AA, read-out: CT26 IC50 values, mean ± SD), 1500 ± 390 nM; in [3] (72 h incubation, with 5 eq. AA, read-out: CT26 IC50 values + 5 eq. AA, mean) it was 2110 nM. The IC50 in series [3] (72 h incubation, without AA, read-out: CT26 IC50 values, mean) stood at 1900 nM; in [4] (48 h incubation, with 5 equiv AA, read-out: HCT116 IC50 values +AA, mean ± SD) it was 670 ± 10 nM; in [4] (48 h incubation, without AA, read-out: HCT116 IC50 values, mean ± SD) it was 720 ± 10 nM; in series [4] (72 h incubation, with 5 eq. AA, read-out: HCT116 IC50 values + 5 eq. AA, mean), 740 nM; in [4] (72 h incubation, without AA, read-out: HCT116 IC50 values, mean), 760 nM; in the series on human SKOV3 cancer cells, 43.4 µM. For the same compound, it took 3.94 µM to reach half-maximal inhibition in [5] (IC50). Further, in the series on HCT116 cells, the “cellular platinum uptake (in words)” value is “taken up by the cells much more efficiently than any of the platinum(IV) prodrugs”.

Turning to `Cn1cc(C[C@@H]([NH3+])C(=O)[O][Pt]2([O]C(=O)NCCCCCN3C(=O)C=CC3=O)[O]C(=O)C(=O)[O]2)c2ccccc21.N[C@@H]1CCCC[C@H]1N.O=C([O-])C(F)(F)F` [MalCa/IdoEs, (OC-6-34)-[(R)-2-Ammonio-3-(1-methyl-1H-indol-3-yl)propanoato][(1R,2R)-1,2-cyclohexanediamino][5-(2,5-dioxo-2,5-dihydro-1H-pyrrol-1-yl)pentylcarbamato]oxalatoplatinum(IV) Trifluoroacetate], the “kynurenic acid in tumors (in words)” value in the series with IDO was “enhanced signals”. Besides, the “anticancer activity against CT26 tumors (in words)” value in series [6] is on record as “significant anticancer activity”. In series [7], the “platinum levels in blood plasma” value amounted to 1.9 mg/kg, the “Platinum ratio tumor:kidney” value was 0.6 and the “Platinum ratio tumor:liver” value worked out at 0.6.

Regarding `Cn1cc(C[C@@H](NC(=O)[O][Pt]2([O]C(=O)CCCCCN3C(=O)C=CC3=O)[O]C(=O)C(=O)[O]2)C(=O)O)c2ccccc21.N[C@@H]1CCCC[C@H]1N` [MalEs/IdoCa, (OC-6-34)-[(R)-(1-Carboxy-2-(1-methyl-1H-indol-3-yl)ethyl)carbamato][(1R,2R)-1,2-cyclohexanediamino][6-(2,5-dioxo-2,5-dihydro-1H-pyrrol-1-yl)hexanoato]oxalatoplatinum(IV)], the “IDO activity in tumor, Trp to Kyn ratio (in words)” value with IDO (compared to solvent- or MalCa/IdoEs-treated animals) is on record as “inhibition of IDO activity indicated by an improved Trp to Kyn ratio”. In the series on IDO (SKOV3 tumor tissue), the “1-MDT levels in tumor, fold higher than upon MalCa/IdoEs treatment” value is approximately 2 fold. For the same compound, the “anticancer activity against CT26 tumors (in words)” value in [6] is recorded as “activity comparable to MalCa/IdoCa”. Besides, in series [8], the “immune cell population in tumor-draining lymph nodes” value is “no effect” and the “ratio of CD4+ to CD8+ T cells in the malignant tissue” value is listed as “significant shift”. In series [7], the “plasma platinum concentration, fold higher than oxaliplatin or OAc/OAc” value is reported as approximately 12 fold; the “platinum levels in blood plasma” value was determined as 5.9 mg/kg; the “Platinum ratio tumor:kidney” value is 1.2; the “Platinum ratio tumor:liver” value is 0.7.

For `CC(=O)[O][Pt]12([O]C(=O)CCc3cn(C)c4ccccc34)([NH]C3CCCCC3[NH]1)[O]C(=O)C(=O)[O]2` [OAc/IPAEs, (OC-6-44)-Acetato[(1R,2R)-1,2-cyclohexanediamino][3-(1-methyl-1H-indol-3-yl)propanoato]oxalatoplatinum(IV)], in [9], the “reduction kinetics with AA (in words)” value is listed as “comparable reduction kinetics to the carbamate-linked complexes”. For the same compound, the “reduction in the presence of dithiothreitol (in words)” value in [10] is “stable under these conditions”.
